From PMC10353187, “Discovery of a new potent oxindole multi-kinase inhibitor among a series of designed 3-alkenyl-oxindoles with ancillary carbonic anhydrase inhibitory activity as antiproliferative agents” (BMC Chemistry, 2023)

Columns and labels:
Test in all cases: NCI-60 single-dose antiproliferative assay (SRB)
Format in all cases: cell-based
[1] = tested on: TK-10; conditions: Homo sapiens; 10 μM single dose; TK-10, Renal cancer; read-out: Cell Growth inhibition Percent
How it was run: (§1)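 The tumour lines, maintained in RPMI 1640 supplemented with 5% fetal bovine serum, received each compound at one concentration (10 µM) for 48 h at 37 °C. Cell mass was quantified by SRB binding (515 nm) and expressed as percentage growth inhibition.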

[2] = tested on: CCRF-CEM; conditions: Homo sapiens, 10 μM single dose, Leukemia, read-out: Cell Growth inhibition Percent
How it was run: as §1

[3] = tested on: MOLT-4; conditions: Homo sapiens; 10 μM single dose; MOLT-4, Leukemia; read-out: Cell Growth inhibition Percent
How it was run: as §1

[4] = tested on: DU-145; conditions: Homo sapiens; 10 μM single dose; DU-145, Prostate cancer; read-out: Cell Growth inhibition Percent
How it was run: as §1

[5] = tested on: HCC-2998; conditions: Homo sapiens; 10 μM single dose; HCC-2998, Colon cancer; read-out: Cell Growth inhibition Percent
How it was run: as §1

[6] = tested on: NCI/ADR-RES; conditions: Homo sapiens, 10 μM single dose, Ovarian Cancer, read-out: Cell Growth inhibition Percent
How it was run: as §1

[7] = tested on: HT29; conditions: Homo sapiens, HT-29; 10 μM single dose; HT29, Colon cancer; read-out: Cell Growth inhibition Percent
How it was run: as §1

[8] = tested on: SK-MEL-28; conditions: Homo sapiens; 10 μM single dose; SK-MEL-28, Melanoma; read-out: Cell Growth inhibition Percent
How it was run: as §1

[9] = tested on: HL-60(TB); conditions: Homo sapiens, 10 μM single dose, Leukemia, read-out: Cell Growth inhibition Percent
[10] = tested on: COLO205; conditions: Homo sapiens, COLO 205; 10 μM single dose; COLO205, Colon cancer; read-out: Cell Growth inhibition Percent
How it was run: as §1

[11] = tested on: UACC-257; conditions: Homo sapiens; 10 μM single dose; UACC-257, Melanoma; read-out: Cell Growth inhibition Percent
How it was run: as §1

SMILES	inhibition at 10 µM [1] [%]	inhibition at 10 µM [2] [%]	inhibition at 10 µM [3] [%]	inhibition at 10 µM [4] [%]	inhibition at 10 µM [7] [%]	inhibition at 10 µM [10] [%]	further results
O=C1Nc2ccccc2C1=CNc1ccc(C(=O)O)cc1 [Compound 4c, 4-{[(2-Oxoindolin-3-ylidene)methyl]amino}benzoic acid]	19.1	–	–	–	–	–	–
O=C1Nc2ccccc2C1=CNc1ccc(CNc2ccc(S(=O)(=O)Nc3ncccn3)cc2)cc1 [Compound 11b, 4-{[4-({[2-Oxoindolin-3-ylidene]methyl}amino)benzyl]amino}-N-(pyrimidin-2-yl)benzenesulfonamide]	–	25.4	–	–	–	–	–
NS(=O)(=O)c1ccc(NCc2ccc(NC=C3C(=O)Nc4ccccc43)cc2)cc1 [Compound 11a, 4-{[4-({[2-Oxoindolin-3-ylidene]methyl}amino)benzyl]amino}benzenesulfonamide]	–	–	1.28	2.9	–	–	–
O=C(Nc1ccc(NC=C2C(=O)Nc3ccccc32)cc1)Nc1nccs1 [Compound 15c, 1-{4-[((2-Oxoindolin-3-ylidene)methyl)amino]phenyl}-3-(thiazol-2-yl)urea]	24.3	–	67.8	59.5	82.1	74.2	inhibition at 10 µM [5]: 26.1%; inhibition at 10 µM [6]: 59.2%; inhibition at 10 µM [8]: 38.7%; inhibition at 10 µM [9]: 58%; inhibition at 10 µM [11]: 28.4%
O=C1Nc2ccccc2C1=CNc1ccc(C(=O)C=CNc2nccs2)cc1 [Compound 13c, 3-{[(4-{3-[Thiazol-2-ylamino]acryloyl}phenyl)amino]methylene}indolin-2-one]	–	12.1	–	–	8.13	1.8	–
